The values that follow come from ChEMBL document CHEMBL1221387, “Prenylflavonoids from Glycyrrhiza uralensis and their protein tyrosine phosphatase-1B inhibitory activities” (Bioorg Med Chem Lett, 2010).

Usually IC50 stands for the midpoint of a concentration-inhibition curve.

The structures appear in SMILES notation.

In the test the target is T1, Tyrosine-protein phosphatase non-receptor type 1 (Homo sapiens, UniProt P18031).
T1 sequence (P18031 whole entry): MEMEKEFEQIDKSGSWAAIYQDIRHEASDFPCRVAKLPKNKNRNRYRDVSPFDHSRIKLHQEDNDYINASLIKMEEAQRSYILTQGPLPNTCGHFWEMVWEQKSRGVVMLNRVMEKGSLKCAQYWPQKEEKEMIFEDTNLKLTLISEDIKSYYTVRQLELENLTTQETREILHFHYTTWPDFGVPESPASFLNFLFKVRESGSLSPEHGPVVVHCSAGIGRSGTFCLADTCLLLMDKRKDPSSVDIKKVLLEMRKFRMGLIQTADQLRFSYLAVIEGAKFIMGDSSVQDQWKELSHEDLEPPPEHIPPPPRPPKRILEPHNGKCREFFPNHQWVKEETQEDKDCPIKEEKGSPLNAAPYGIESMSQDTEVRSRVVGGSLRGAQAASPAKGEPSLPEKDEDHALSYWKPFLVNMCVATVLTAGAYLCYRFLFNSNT
As to the kind of experiment: Inhibition of human recombinant PTP1B assessed as p-nitorphenol production after 30 mins.
As for `CCCCCCCCCCCCCCCC(=O)C1=C(O)[C@@H](CO)OC1=O`, the IC50 amounted to 4.4 µM. Regarding `COc1cc(O)cc2occ(-c3cc(O)c(O)c(CC=C(C)C)c3)c(=O)c12` [GLISOFLAVONE], the IC50 came out at 27.9 µM. On to `COc1c(CC=C(C)C)c(O)cc2oc(=O)c(-c3ccc(O)cc3O)cc12` [GLYCYCOUMARIN], for which the IC50 is 184 µM. Regarding `CC(C)=CCc1cc(-c2coc3cc(O)cc(O)c3c2=O)cc(O)c1O` [GLYCYRRHISOFLAVONE], the IC50 came out at 58.7 µM. Regarding `COc1c(CC=C(C)C)c(O)cc(O)c1-c1oc2cc(O)ccc2c1C` [GLYCYBENZOFURAN], the IC50 was 25.5 µM. For the compound `COc1c(CC=C(C)C)c(O)cc2oc(-c3ccc(O)cc3O)cc12` [LICOCOUMARONE], the IC50 is 71.2 µM. The figure for `CC(C)=CCc1cc2c(=O)cc(-c3ccc(O)cc3)oc2cc1O` [LICOFLAVANONE A] is 54.5 µM.
